Values joined by “and” are separate entries in the source; they are usually repeats but may differ in a detail not shown here. Identical values can stand only once.
Key:
[1] = Singlet oxygen detection by photosensitized oxygenation of DPIBF; format: physicochemical; conditions: ethanol, red light 660 nm
Excerpt: The second method of singlet oxygen detection was based on photosensitized oxygenation of the singlet oxygen conjugate 1,3-diphenylisobenzofuran (DPIBF) (Acros Organics, United Kingdom). DPIBF chemically binds to two singlet oxygens (^1O2) (FIG. 3). This method was applied to chlorin e4 sodium solutions in ethanol. The major absorption band of DPIBF is located at 414-415 nm. The molar absorption coefficient in this maximum, εDPIBF, is known to be 23500 M^−1 cm^−1. Tested solutions were irradiated by the monochromatic light from a xenon lamp using the excitation system of the spectrofluorimeter Perkin-Elmer MPF-44B, the spectral width of the monochromator bandwidth corresponding to 5 nm. Radiant power was measured using the calibrated detector ThorLabs PM-100 (Germany). The singlet oxygen quantum yields (ΦΔ) were calculated according to the equation: […]

[2] = system: non-small cell lung cancer with metastases in the lymph nodes and bones; experiment: In vivo studies Example 8: patient, oral chlorin e4 sodium plus laser and LED light; set-up: species or system human
Experimental: A patient with non-small cell lung cancer with metastases in the lymph nodes and bones, was treated successfully. The treatment consisted of two courses. For each course, five doses of 62.5-187.5 mg chlorin e4 sodium were administered orally over the course of eight days. About 24 hours after each oral dose of chlorin e4 sodium, the patient was treated with laser and LED light having a wavelength of 660 nm and 760 nm.

[3] = Singlet oxygen phosphorescence at 1270 nm after pulsed laser excitation; format: physicochemical; conditions: for Decay time of photosensitized singlet oxygen phosphorescence / Rise time of photosensitized singlet oxygen phosphorescence: air saturated
Experimental: Singlet oxygen phosphorescence was detected using measurement of infrared phosphorescence at 1270 nm corresponding to the transition of oxygen molecules from the singlet to the triplet state. Phosphorescence was recorded at room temperature with the laser phosphorescence spectrometer described at A. A. Krasnovsky Jr., Photodynamic action and singlet oxygen, Biofizika, 2004, 49, 305-321; and A. A. Krasnovsky Jr., Singlet oxygen and primary mechanisms of photodynamic therapy and photodynamic diseases, In: Photodynamic therapy at the cellular level, ed. A. B. Uzdensky, Research Singpost, Kerala, India, 2007, 17-62. For excitation, nanosecond pulses of 511 nm radiation from a copper-vapour laser (Troitzk, Physics Institute of the Russian Academy of Science) were employed. Laser radiation passed additionally through a green light filter SZS-22 (4 mm), which transmitted laser light and cut off IR laser radiation caused by heating of the laser tube. Pulse duration was 20 ns, pulse energy varied from 18 to 40 μJ and the pulse repetition rate was 12 kHz. The laser light was collimated on the surface of a 1 cm rectangular quartz cuvette. The diameter of the illuminated spot on the surface of the cell was 5 mm. For kinetic measurements another spectrometer was used without a monochromator. In this case, phosphorescence resulting from the right angle to the excitation beam was focused on the photocathode of a cooled S-1 photomultiplier (FEU-112) through a cut-off IR light filter and an interference filter with the transmission maximum at 1270 nm. The phosphorescence spectra were measured using a MS-80 high throughput grid monochromator. In this case, phosphorescence was focused on the entry slit of this monochromator. The bandwidth of the monochromator corresponded to a 20 nm spectral interval. The monochromatic light was focused on the photocathode of a cooled S-1 photomultiplier (FEU-83). The photomultiplier signal was registered using time-correlated single photon counting and averaged over many laser pulses. In most experiments, one-channel on time was equal to 81 ns. When the pigment bleaching reached 10%, the solution was replaced by a fresh one and measurement was continued. […] Reasonable phosphorescent curves were obtained after 10-20 minutes signal accumulation and therefore samples were changed many times. As described previously (D. A. Butorina, A. A. Krasnovsky Jr. and A. V. Priezzev, Investigation of the kinetic parameters of singlet molecular oxygen in aqueous porphyrin solutions, Influence of detergents and the quencher sodium azide, Biofizika, 2003, 48, 189-196; A. A. Krasnovsky Jr., Luminescence and photochemical studies of singlet oxygen photonics, J. Photochem. Photobiol. A: Chem., 2008, 196, 210-218; and N. Kuznetsova, D. Makarov, O. Yuzhakova, A. Strizhakov, Y. Roumbal, L. Ulanova, A. Krasnovsky and O. Kaliya, Photophysical properties and photodynamic activity of octacationic oxotitanium(IV) phthalocyanines, Photochemical Photobiological Sciences, 2009, 8, 1724-1733), for computer analysis the following two-exponential equation was used: […]
I(t)I0·[exp(−kdecay·t)−exp(−krise·t)]+n
where kdecay and krise are the rate constants of the decay and rise phases of the phosphorescence curves after a laser pulse, n is the off noise of the photomultiplier, I0 is the zero-time phosphorescence intensity, and I(t) is the phosphorescence intensity at time t. To reduce contribution of the luminescence of the pigment in the quartz cuvette, which was observed shortly after laser pulses, readings were taken starting from 400 ns after laser pulses in ethanol and 1 μs in water. In addition, phosphorescence and kinetic traces were measured also from the control chlorin e4 sodium solutions containing high concentration of sodium azide, which completely quenched singlet oxygen. […]

C=Cc1c(C)c2cc3nc(c(C)c4[nH]c(cc5nc(cc1[nH]2)C(C)=C5CC)c(C)c4C(=O)O)[C@@H](CCC(=O)O)[C@@H]3C [chlorin e4 sodium]
Quantum yield of singlet oxygen generation [1]: 0.68±0.05 | Patient status ([2]; 10 months after starting, seven months after completion of treatment): alive and well | Response of the lungs (PET/CT) ([2]; before and after two courses): many tumours disappearing and the remaining tumours showing no or low metabolic activity | Side effects ([2]; two courses): no side effects | Pigment bleaching under laser irradiation ([3]; 511 nm laser pulses, solutions changed after each 60-180 s irradiation): bleached rather rapidly | Decay time of photosensitized singlet oxygen phosphorescence ([3]; Ethanol): 13.5 μs and 13.5 ± 0.3 μs | Rise time of photosensitized singlet oxygen phosphorescence ([3]; Ethanol): 0.3 ± 0.3 μs | Decay time of photosensitized singlet oxygen phosphorescence ([3]; Water + 0.2M SDS): 3.85 ± 0.3 μs | Rise time of photosensitized singlet oxygen phosphorescence ([3]; Water + 0.2M SDS): 1.2 ± 0.3 μs | Decay time of photosensitized singlet oxygen phosphorescence ([3]; Water): 3.3 ± 0.3 μs | Rise time of photosensitized singlet oxygen phosphorescence ([3]; Water): 1.8 ± 0.4 μs | Rise time of singlet oxygen phosphorescence ([3]; ethanol): 300 ns | Singlet oxygen quantum yield ([3]; ethanol, from phosphorescence kinetic curves, reference TPPS): 0.63±0.05 | Photosensitizing activity ([3]; water without SDS): lower than in ethanol

Source: patent US20150315202A1, “CHLORIN DERIVATIVE USEFUL IN PHOTODYNAMIC THERAPY AND DIAGNOSIS” (RMW CHO GROUP LIMITED, priority 2012, published 2015)
